Here are results for 7 compounds from ChEMBL document CHEMBL4828721, “Substituted dienes prepared from betulinic acid - Synthesis, cytotoxicity, mechanism of action, and pharmacological parameters” (Eur J Med Chem, 2021).

For one experiment, the system named is CCRF-CEM. In words: Cytotoxicity against human CCRF-CEM cells assessed as reduction in cell viability measured after 72 hrs by MTS assay. Type of experiment: functional, cell-based. In general terms: Formazan colour is commonly taken as a measure of viable cells.
The test system of the next experiment is CEM-DNR. In words: Cytotoxicity against daunorubicin resistant human CEM-DNR cells assessed as reduction in cell viability measured after 72 hrs by MTS assay. Type of experiment: functional, cell-based.
For a further experiment, the system named is HCT-116. In words: Cytotoxicity against human HCT-116 cells assessed as reduction in cell viability measured after 72 hrs by MTS assay. The settings on record: HCT-116, 72 h. In kind it is functional, cell-based.
Experiment [1] in a line: Cytotoxicity against human HCT116 p53-null cells assessed as reduction in cell viability measured after 72 hrs by MTS assay. Type of experiment: functional, cell-based.
The next experiment deals with K562. In words: Cytotoxicity against human K562 cells assessed as reduction in cell viability measured after 72 hrs by MTS assay. Type of experiment: functional, cell-based. The settings on record: K562, 72 h.
Experiment [2] in a line: Cytotoxicity against paclitaxel resistant human K562-Tax cells assessed as reduction in cell viability measured after 72 hrs by MTS assay. In kind it is functional, cell-based.
In a further experiment the test system is A549. In words: Cytotoxicity against human A549 cells assessed as reduction in cell viability measured after 72 hrs by MTS assay. In kind it is functional, cell-based. The settings on record: A549, 72 h.
The test system of the next experiment is U2OS. In words: Cytotoxicity against human U2OS cells assessed as reduction in cell viability measured after 72 hrs by MTS assay. Type of experiment: functional, cell-based.
Another experiment deals with BJ. In words: Cytotoxicity against human BJ cells assessed as reduction in cell viability measured after 72 hrs by MTS assay. In kind it is cell-based.
A further experiment concerns MRC5. In words: Cytotoxicity against human MRC5 cells assessed as reduction in cell viability measured after 72 hrs by MTS assay. Type of experiment: cell-based. The settings on record: MRC5, 72 h.

The IC50 is the concentration that inhibits the measured activity by half.

On to `C=C(/C=C/c1ccccc1)[C@@H]1CC[C@]2(C(=O)O)CC[C@]3(C)[C@H](CC[C@@H]4[C@@]5(C)CC[C@H](O)C(C)(C)[C@@H]5CC[C@]43C)[C@@H]12`, for which the 50% inhibitory concentration (IC50) was 6.5 µM in the experiment with CCRF-CEM; 30.2 µM in the experiment on CEM-DNR; 35.5 µM in the experiment with HCT-116; 39.5 µM in experiment [1]; 40 µM in the experiment on K562; 25.3 µM in [2]. Also, the half-inhibitory concentration (IC50) in the experiment on A549 is 41.8 µM; with U2OS, 24.2 µM; in the experiment with BJ, above 50 µM; with MRC5 it was above 50 µM.

Consider `C=C(/C=C/c1ccccc1Br)[C@@H]1CC[C@]2(C(=O)O)CC[C@]3(C)[C@H](CC[C@@H]4[C@@]5(C)CC[C@H](O)C(C)(C)[C@@H]5CC[C@]43C)[C@@H]12`, for which the IC50 was 16.8 µM in the experiment with CCRF-CEM; 49.1 µM in the experiment on CEM-DNR; 27.2 µM in the experiment on HCT-116; 24.5 µM in experiment [1]; 21.6 µM with K562; 47.9 µM in experiment [2]. The half-inhibitory concentration (IC50) is 28.6 µM in the experiment with A549, 27.8 µM with U2OS, 46.7 µM in the experiment with BJ and 35.3 µM with MRC5.

Take `C=C(/C=C/c1ccc(Br)cc1)[C@@H]1CC[C@]2(C(=O)O)CC[C@]3(C)[C@H](CC[C@@H]4[C@@]5(C)CC[C@H](O)C(C)(C)[C@@H]5CC[C@]43C)[C@@H]12`: the half-inhibitory concentration (IC50) with CCRF-CEM was 6.5 µM; in the experiment with CEM-DNR, 28.9 µM; in the experiment with HCT-116, 33.2 µM; in experiment [1], 31.8 µM; in the experiment with K562, above 50 µM; in experiment [2], 29.3 µM. In addition, the 50% inhibitory concentration (IC50) with A549 is above 50 µM; with U2OS, 27 µM; in the experiment on BJ, above 50 µM; in the experiment with MRC5, 35.2 µM.

`C=C(/C=C/c1c(F)c(F)c(F)c(F)c1F)[C@@H]1CC[C@]2(C(=O)O)CC[C@]3(C)[C@H](CC[C@@H]4[C@@]5(C)CC[C@H](O)C(C)(C)[C@@H]5CC[C@]43C)[C@@H]12`: the IC50 in the experiment with CCRF-CEM was 22.1 µM; with CEM-DNR, above 50 µM; in the experiment on HCT-116, 32.2 µM; in [1], 36.3 µM; in the experiment with K562, 29.8 µM; in experiment [2], above 50 µM. Moreover, the 50% inhibitory concentration (IC50) in the experiment with A549 is 32.2 µM; with U2OS, 30.2 µM; in the experiment on BJ, above 50 µM; in the experiment with MRC5 it was 43.2 µM.

Consider `C=C(/C=C/c1cccc(F)c1)[C@@H]1CC[C@]2(C(=O)O)CC[C@]3(C)[C@H](CC[C@@H]4[C@@]5(C)CC[C@H](O)C(C)(C)[C@@H]5CC[C@]43C)[C@@H]12`, for which the IC50 in the experiment on CCRF-CEM stood at 11.7 µM; with CEM-DNR, 23.1 µM; in the experiment with HCT-116 it was 23 µM; in experiment [1], 21 µM; in the experiment with K562, 21.6 µM; in experiment [2], 21.9 µM. For the same compound, the concentration for half-maximal inhibition (IC50) in the experiment on A549 was determined as 28.7 µM; in the experiment with U2OS, 27.7 µM; in the experiment on BJ, 41.5 µM; in the experiment with MRC5 it was 32.1 µM.

For `C=C(/C=C/c1ccc(C#N)cc1)[C@@H]1CC[C@]2(C(=O)O)CC[C@]3(C)[C@H](CC[C@@H]4[C@@]5(C)CC[C@H](O)C(C)(C)[C@@H]5CC[C@]43C)[C@@H]12`, the IC50 in the experiment on CCRF-CEM was 23.8 µM; in the experiment on CEM-DNR it was 27 µM; with HCT-116 it was 39.1 µM; in experiment [1], 43.3 µM; in the experiment on K562, above 50 µM; in experiment [2], 27.2 µM. Besides, the IC50 in the experiment with A549 is above 50 µM; in the experiment on U2OS it was 44.1 µM; in the experiment on BJ, above 50 µM; with MRC5, 49.7 µM.

`C=C(/C=C/c1ccccc1F)[C@@H]1CC[C@]2(C(=O)O)CC[C@]3(C)[C@H](CC[C@@H]4[C@@]5(C)CC[C@H](O)C(C)(C)[C@@H]5CC[C@]43C)[C@@H]12`: the half-inhibitory concentration (IC50) was 15.4 µM in the experiment with CCRF-CEM; 23.2 µM in the experiment on CEM-DNR; 24.5 µM in the experiment on HCT-116; 22.6 µM in [1]; 21.8 µM in the experiment with K562; 25.1 µM in [2]. Further, the IC50 in the experiment with A549 came out at 29.7 µM; with U2OS it was 27.7 µM; with BJ it was 42.1 µM; in the experiment with MRC5, 31.7 µM.
